“Also recorded” adds a separate entry of the source.
What was measured:
[1] = target: T1, SPARC (Homo sapiens, UniProt P09486); experiment: Concentration dependent binding ELISA; conditions: for binding to SPARC compared with anti-SPARC antibody: ELISA, FIG. 9
T1 sequence (P09486 18-303): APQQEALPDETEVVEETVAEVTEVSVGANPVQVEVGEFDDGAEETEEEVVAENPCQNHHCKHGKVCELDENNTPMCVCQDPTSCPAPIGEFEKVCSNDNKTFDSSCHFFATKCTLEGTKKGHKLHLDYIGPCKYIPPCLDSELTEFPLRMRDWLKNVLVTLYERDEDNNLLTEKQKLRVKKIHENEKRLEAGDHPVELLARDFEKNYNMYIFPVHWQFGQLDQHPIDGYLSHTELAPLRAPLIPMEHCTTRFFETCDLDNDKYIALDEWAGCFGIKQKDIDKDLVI

[2] = tested on: non-SPARC proteins in 5,000 proteins on the array; experiment: Protein microarray analysis (Invitrogen ProtoArray v.3), off target binding
Text: FIG. 8 depicts the Protoarray used to define off target binding of PD 15 and PD21.

[3] = tested on: sections of a human brain tumor (SPARC expressing tumor); experiment: Immunohistochemical staining of tumor sections; conditions: IHC, FIGS. 10 and 11
Text: FIGS. 10 and 11 show the co-localization of SPARC (as indicated by immunohistochemical (IHC) staining with an anti-SPARC antibody) and the binding of PD 15 and PD 21 in sections of a human brain tumor (which have been epitope tagged for IHC staining.).

[4] = tested on: HT29 colon xenograft; experiment: Antitumor activity in HT29 xenograft model; assay type: in vivo, mouse; conditions: FIG. 14
[5] = tested on: PC3 prostatecarcinoma xenograft; experiment: Antitumor activity in PC3 xenograft model; assay type: in vivo, nude mouse; conditions: for tumor growth inhibition: FIG. 13
Procedure: FIG. 13 depicts the antitumor activity of PD 15 and PD 21 in a human prostate cancer/nude mouse model system.
The PD 15 and PD 21-Fc fusion proteins were assayed for antitumor activity in a murine-human PC3 prostatecarcinoma xenograft model.

Substance | binding to SPARC compared with anti-SPARC antibody [1] | cross reactivity with non-SPARC proteins [2] | binding to / staining of tumor tissue [3] | antitumor activity, comparison [4] | affinity for SPARC, PD 15 versus PD 21 ([1]; ELISA and IHC experiments) | antitumor activity, comparison [5] | tumor growth inhibition [5]
VTPLLKFRALSS [PD 21] | only slightly weaker than that of an anti-SPARC antibody | only minimal cross reactivity | binding | better antitumor activity than PD 15; also recorded: activity closely equivalent to Abraxane | – | – | –
YTRLHHWIPPQR [PD 15] | only slightly weaker than that of an anti-SPARC antibody | only minimal cross reactivity | binding | – | higher affinity for SPARC than PD 21 | better antitumor activity than PD21 | –
PD 21-Fc: fusion protein of SPARC binding peptide PD 21 with human IgG1 Fc domain (pFUSE-hIgG1-Fc2 vector) (VTPLLKFRALSS) | – | – | – | – | – | – | statistically significant tumor growth inhibition
PD 15-Fc: fusion protein of SPARC binding peptide PD 15 with human IgG1 Fc domain (pFUSE-hIgG1-Fc2 vector) (YTRLHHWIPPQR) | – | – | – | – | – | – | statistically significant tumor growth inhibition

— patent US8821836B2, “SPARC binding peptides and uses thereof” (Abraxis BioScience, LLC, priority 2008, dated 2014)
